# Legend:
# [1] = Antiproliferative activity against human GBM2 cells assessed as reduction in cell viability after 72 hrs by MTT assay; type: functional, cell-based; details: GBM2, 72 h
# [2] = Antiproliferative activity against human GBM95 cells assessed as reduction in cell viability after 72 hrs by MTT assay; type: functional, cell-based
# [3] = Potency index, ratio of temozolomide IC50 to test compound IC50 for antiproliferative activity against human GBM2 cells; type: functional
# [4] = Potency index, ratio of temozolomide IC50 to test compound IC50 for antiproliferative activity against human GBM95 cells; type: functional
# K562 [5] = assay: Antiproliferative activity against human K562 cells assessed as reduction in cell viability after 24 hrs by MTT assay; type: functional, cell-based; details: K562, 24 h
# PBMC = assay: Cytotoxicity against human PBMC cells assessed as reduction in cell viability after 24 hrs by MTT assay; type: cell-based
# HL-60 = assay: Antiproliferative activity against human HL60 cells assessed as reduction in cell viability after 24 hrs by MTT assay; type: functional, cell-based; details: HL-60, 24 h
# K562-Lucena 1 = assay: Antiproliferative activity against human K562-Lucena 1 cells assessed as reduction in cell viability after 24 hrs by MTT assay; type: functional, cell-based; details: K562-Lucena 1, 24 h
# MDA-MB-231 [6] = assay: cells; details: Homo sapiens
# Description: Antiproliferative activity against human MDA-MB-231 cells assessed as reduction in cell viability preincubated for 24 hrs under hypoxia condition further incubated for 72 hrs under normaxic condition by MTT assay
# MDA-MB-231 [7] = assay: cells; details: Homo sapiens, MDA-MB-231, 96 h
# Description: Antiproliferative activity against human MDA-MB-231 cells assessed as reduction in cell viability incubated for 96 hrs under normaxic condition by MTT assay
# MCF7 [8] = assay: cells; type: functional, cell-based; details: Homo sapiens
# Description: Antiproliferative activity against human MCF7 cells by MTT assay
# HCT-116 [9] = assay: Antiproliferative activity against human HCT116 cells by MTT assay; type: functional, cell-based
# HepG2 [10] = assay: Antiproliferative activity against human HepG2 cells by MTT assay; type: functional, cell-based
# K562 [11] = assay: Antiproliferative activity against human K562 cells by MTT assay; type: functional, cell-based
# LoVo = assay: Antiproliferative activity against human LoVo cells by MTT assay; type: functional, cell-based
# PC-3 [12] = assay: Antiproliferative activity against human PC3 cells assessed as reduction in cell viability after 24 hrs by MTT assay; type: functional, cell-based; details: PC-3, 24 h
# HepG2 [13] = assay: Antiproliferative activity against human HepG2 cells assessed as reduction in cell viability after 24 hrs by MTT assay; type: functional, cell-based; details: HepG2, 24 h
# HCT-116 [14] = assay: Antiproliferative activity against human HCT116 cells assessed as reduction in cell viability after 24 hrs by MTT assay; type: functional, cell-based; details: HCT-116, 24 h
# MCF7 [15] = assay: Antiproliferative activity against human MCF7 cells assessed as reduction in cell viability after 24 hrs by MTT assay; type: functional, cell-based; details: MCF7, 24 h
# [16] = Cytotoxicity against human HEK cells assessed as reduction in cell viability after 24 hrs by MTT assay; type: cell-based; details: HEK293, 24 h
# Erythrocyte = assay: Cytotoxicity against human RBC cells assessed as reduction in cell viability after 24 hrs by MTT assay; type: cell-based
# MGC-803 [17] = assay: Antiproliferative activity against human MGC803 cells by MTT assay; type: functional, cell-based
# SK-N-SH [18] = assay: Antiproliferative activity against human SK-N-SH cells by MTT assay; type: functional, cell-based
# MGC-803 [19] = assay: Potency index, ratio of 5-Fluorouracil IC50 to test compound IC50 for antiproliferative activity against human MGC803 cells by MTT assay; type: functional
# SK-N-SH [20] = assay: Potency index, ratio of 5-Fluorouracil IC50 to test compound IC50 for antiproliferative activity against human SK-N-SH cells by MTT assay; type: functional
# HepG2 [21] = assay: Potency index, ratio of 5-Fluorouracil IC50 to test compound IC50 for antiproliferative activity against human HepG2 cells by MTT assay; type: functional
# PC-3 [22] = assay: cells; type: functional, cell-based; details: Homo sapiens, PC-3, 48 h
# Description: Antiproliferative activity against human PC3 cells assessed as reduction in cell viability after 48 hrs by MTT assay
# SW-620 = assay: cells; type: functional, cell-based; details: Homo sapiens, SW-620, 48 h
# Description: Antiproliferative activity against human SW620 cells assessed as reduction in cell viability after 48 hrs by MTT assay
# ASPC1 = assay: cells; type: functional, cell-based; details: Homo sapiens, ASPC1, 48 h
# Description: Antiproliferative activity against human Aspc-1 cells assessed as reduction in cell viability after 48 hrs by MTT assay
# NCI-H23 = assay: cells; type: functional, cell-based; details: Homo sapiens, NCI-H23, 48 h
# Description: Antiproliferative activity against human NCI-H23 cells assessed as reduction in cell viability after 48 hrs by MTT assay
# A549 [23] = assay: cells; type: functional, cell-based; details: Homo sapiens
# Description: Antiproliferative activity against human A549 cells by MTT assay
# HeLa [24] = assay: Antiproliferative activity against human HeLa cells by MTT assay; type: functional, cell-based
# DU-145 [25] = assay: Antiproliferative activity against human DU145 cells by MTT assay; type: functional, cell-based
# PC-3 [26] = assay: Antiproliferative activity against human PC3 cells by MTT assay; type: functional, cell-based
# NIH3T3 = assay: Antiproliferative activity against mouse NIH/3T3 cells by MTT assay; type: functional, cell-based
# A-431 = assay: Antiproliferative activity against human A431 cells assessed as reduction in cell viability after 24 hrs by MTT assay; type: functional, cell-based; details: A-431, 24 h
# MDA-MB-231 [27] = assay: Antiproliferative activity against human MDA-MB-231 cells assessed as reduction in cell viability after 24 hrs by MTT assay; type: functional, cell-based; details: MDA-MB-231, 24 h
# COLO 205 = assay: Antiproliferative activity against human COLO205 cells assessed as reduction in cell viability after 24 hrs by MTT assay; type: functional, cell-based; details: COLO 205, 24 h
# A549 [28] = assay: Antiproliferative activity against human A549 cells assessed as reduction in cell viability after 24 hrs by MTT assay; type: functional, cell-based; details: A549, 24 h
# MCF7 [29] = assay: Antiproliferative activity against human MCF7 cells assessed as reduction in cell viability after 48 hrs by MTT assay; type: functional, cell-based; details: MCF7, 48 h
# HCT-116 [30] = assay: Antiproliferative activity against human HCT116 cells assessed as reduction in cell viability after 48 hrs by MTT assay; type: functional, cell-based; details: HCT-116, 48 h
# MDA-MB-231 [31] = assay: Antiproliferative activity against human MDA-MB-231 cells assessed as reduction in cell viability after 48 hrs by MTT assay; type: functional, cell-based; details: MDA-MB-231, 48 h
# MCF7 [32] = assay: Antiproliferative activity against human MCF7 cells assessed as reduction in cell viability after 72 hrs by MTT assay; type: functional, cell-based; details: MCF7, 72 h
# HeLa [33] = assay: Antiproliferative activity against human HeLa cells by SRB assay; type: functional, cell-based
# MDA-MB-231 [34] = assay: Antiproliferative activity against human MDA-MB-231 cells by SRB assay; type: functional
# T47D = assay: Antiproliferative activity against human T47D cells assessed as reduction in cell viability after 48 hrs by MTT assay; type: functional, cell-based
# Caco-2 = assay: Antiproliferative activity against human Caco2 cells assessed as reduction in cell viability after 48 hrs by MTT assay; type: functional, cell-based; details: Caco-2, 48 h
# [35] = Antiproliferative activity against human MiaPaCa cells by SRB assay; type: functional; details: MIA PaCa-2
# IMR-32 [36] = assay: Antiproliferative activity against human IMR32 cells by SRB assay; type: functional
# HeLa [37] = assay: Antiproliferative activity against human HeLa cells assessed as reduction in cell viability after 48 hrs by MTT assay; type: functional, cell-based
# MDA-MB-231 [38] = assay: Antiproliferative activity against human MDA-MB-231 cells assessed as reduction in cell viability after 72 hrs by MTT assay; type: functional, cell-based; details: MDA-MB-231, 72 h
# U-87 MG = assay: Antiproliferative activity against human U87 cells assessed as reduction in cell viability after 72 hrs by MTT assay; type: functional, cell-based, U-87MG ATCC
# HT-29 = assay: Antiproliferative activity against human HT-29 cells assessed as reduction in cell viability after 72 hrs by MTT assay; type: functional, cell-based; details: HT-29, 72 h
# MOLT-4 = assay: Antiproliferative activity against human MOLT4 cells assessed as reduction in cell viability after 72 hrs by MTT assay; type: functional, cell-based; details: MOLT-4, 72 h
# SiHa = assay: Growth inhibition in human SiHa cells after 48 hrs by SRB assay; type: functional
# PANC-1 = assay: Growth inhibition in human PANC1 cells after 48 hrs by SRB assay; type: functional; details: PANC-1, 48 h
# MDA-MB-231 [39] = assay: Growth inhibition in human MDA-MB-231 cells after 48 hrs by SRB assay; type: functional; details: MDA-MB-231, 48 h
# IMR-32 [40] = assay: Growth inhibition in human IMR32 cells after 48 hrs by SRB assay; type: functional; details: IMR-32, 48 h
# DU-145 [41] = assay: Growth inhibition in human DU145 cells after 48 hrs by SRB assay; type: functional; details: DU-145, 48 h
# A549 [42] = assay: Growth inhibition in human A549 cells after 48 hrs by SRB assay; type: functional; details: A549, 48 h
# IMR-32 [43] = assay: Antiproliferative activity against human IMR32 cells assessed as reduction in cell viability after 72 hrs by MTT assay; type: functional, cell-based; details: IMR-32, 72 h
structure (smiles),measurement,setting,value
O=Cc1ccccc1-n1cc(COc2cccc(OCc3cn(-c4ccccc4C=O)nn3)c2)nn1,IC50,[1],30.3 µM
same,IC50,[2],38.2 µM
same,Ratio IC50,[3],37.3
same,Ratio IC50,[4],16.3
O=C1C=C(n2cc(-c3ccccc3)nn2)C(=O)c2ccccc21,IC50,K562 [5],14.3 to 99.2 µM
same,IC50,PBMC,14.3 to 99.2 µM
same,IC50,HL-60,14.3 to 99.2 µM
same,IC50,K562-Lucena 1,14.3 to 99.2 µM
COc1ccc(NC(=O)c2ccc(-n3cc(COc4cc(=O)oc5ccccc45)nn3)cc2)cc1OC,IC50,MDA-MB-231 [6],0.03 µM
same,IC50,MDA-MB-231 [7],1.34 µM
COc1ccc2[nH]cc(Cn3cc(COc4ccc(/C=C/C(=O)NO)cc4OC)nn3)c2c1,IC50,MCF7 [8],3.57 to 6.21 µM
same,IC50,HCT-116 [9],3.57 to 6.21 µM
same,IC50,HepG2 [10],3.57 to 6.21 µM
same,IC50,K562 [11],3.57 to 6.21 µM
same,IC50,LoVo,3.57 to 6.21 µM
C#Cc1cccc(Nc2ncnc3cc(OCCOC)c(OCCOC)cc23)c1 [ERLOTINIB],IC50,PC-3 [12],11.6 to 26.9 µM
same,IC50,HepG2 [13],11.6 to 26.9 µM
same,IC50,HCT-116 [14],11.6 to 26.9 µM
same,IC50,MCF7 [15],11.6 to 26.9 µM
same,IC50,[16],29.5 µM
same,IC50,Erythrocyte,16.2 µM
same,IC50,PBMC,20.5 µM
COc1cccc(Cn2cc(CNc3ccc(C(=O)/C=C/c4cccnc4)cc3)nn2)c1,IC50,HepG2 [10],1.53 to 2.73 µM
same,IC50,MGC-803 [17],1.53 to 2.73 µM
same,IC50,SK-N-SH [18],1.53 to 2.73 µM
same,Ratio IC50,MGC-803 [19],2.6 - 6.7
same,Ratio IC50,SK-N-SH [20],2.6 - 6.7
same,Ratio IC50,HepG2 [21],2.6 - 6.7
COc1ccc2c(c1)/C(=N\O)C(=O)N2Cc1cn(Cc2ccc(C(=O)NO)cc2)nn1,IC50,PC-3 [22],1.4 to 2.62 µM
same,IC50,SW-620,1.4 to 2.62 µM
same,IC50,ASPC1,1.4 to 2.62 µM
same,IC50,NCI-H23,1.4 to 2.62 µM
COc1cc([C@@H]2c3cc4c(cc3[C@H](O)[C@H]3COC(=O)[C@H]23)OCO4)cc(OC)c1OC [PODOFILOX],IC50,MCF7 [8],3.06 to 34.4 µM
same,IC50,HepG2 [10],3.06 to 6.63 µM
same,IC50,A549 [23],3.06 to 34.4 µM
same,IC50,HeLa [24],3.06 to 6.63 µM
same,IC50,DU-145 [25],3.06 to 6.63 µM
same,IC50,PC-3 [26],3.06 to 34.4 µM
same,IC50,NIH3T3,3.06 to 6.63 µM
COc1cccc2c1C(=O)c1c(O)c3c(c(O)c1C2=O)C[C@@](O)(C(=O)CO)C[C@@H]3O[C@H]1C[C@H](N)[C@H](O)[C@H](C)O1 [DOXORUBICIN],IC50,K562 [5],1.43 to 12 µM
same,IC50,PC-3 [12],1.43 to 12 µM
same,IC50,A-431,1.43 to 12 µM
same,IC50,MDA-MB-231 [27],1.43 to 12 µM
same,IC50,COLO 205,1.43 to 12 µM
same,IC50,A549 [28],1.43 to 12 µM
same,IC50,MCF7 [29],1 to 10 µM
same,IC50,HCT-116 [30],0.55 to 10 µM
same,IC50,MDA-MB-231 [31],0.55 to 4.63 µM
same,IC50,A549 [23],3.3 µM
same,IC50,MCF7 [32],0.015 to 0.335 µM
same,GI50,HeLa [33],0.023 to 0.097 µM
same,GI50,MDA-MB-231 [34],0.023 to 0.097 µM
same,IC50,T47D,1 to 10 µM
same,IC50,Caco-2,1 to 10 µM
same,GI50,[35],0.023 to 0.097 µM
same,GI50,IMR-32 [36],0.023 to 0.097 µM
same,IC50,HeLa [37],0.55 to 4.63 µM
same,IC50,MDA-MB-231 [38],0.08 to 0.425 µM
same,IC50,U-87 MG,0.08 to 0.425 µM
same,IC50,HT-29,0.015 to 0.335 µM
same,IC50,MOLT-4,0.015 to 0.335 µM
same,GI50,SiHa,< 0.01 µM
same,GI50,PANC-1,< 0.01 µM
same,GI50,MDA-MB-231 [39],< 0.01 µM
same,GI50,IMR-32 [40],< 0.01 µM
same,GI50,DU-145 [41],< 0.01 µM
same,GI50,A549 [42],< 0.01 µM
same,IC50,IMR-32 [43],0.08 to 0.425 µM
same,IC50,MDA-MB-231 [6],0.6 µM

# — ChEMBL document CHEMBL4342418, “1,2,3-Triazole-containing hybrids as potential anticancer agents: Current developments, action mechanisms and structure-activity relationships” (Eur J Med Chem, 2019)
